Assay results taken from US7504432B2 (priority 2000, dated 2009).

Experiments:
[1] = biological target: T1, m3 muscarinic acetylcholine receptor (Homo sapiens, UniProt P20309); assay: biochemical; format: binding
T1 construct: purchased Receptor Biology, Inc; host or cells: CHO cells

muscarinic M3 receptor = biological target: T2, muscarinic M3 receptor (Canis lupus familiaris, UniProt A0A8I3N190); conditions: dog, in vivo
T2 construct: 12-36 months old male beagle dogs (weighing 10-15 kg) were used; from tissue; host or cells: anesthetized male beagle dogs, airway in vivo
T2 sequence (A0A8I3N190 1-590): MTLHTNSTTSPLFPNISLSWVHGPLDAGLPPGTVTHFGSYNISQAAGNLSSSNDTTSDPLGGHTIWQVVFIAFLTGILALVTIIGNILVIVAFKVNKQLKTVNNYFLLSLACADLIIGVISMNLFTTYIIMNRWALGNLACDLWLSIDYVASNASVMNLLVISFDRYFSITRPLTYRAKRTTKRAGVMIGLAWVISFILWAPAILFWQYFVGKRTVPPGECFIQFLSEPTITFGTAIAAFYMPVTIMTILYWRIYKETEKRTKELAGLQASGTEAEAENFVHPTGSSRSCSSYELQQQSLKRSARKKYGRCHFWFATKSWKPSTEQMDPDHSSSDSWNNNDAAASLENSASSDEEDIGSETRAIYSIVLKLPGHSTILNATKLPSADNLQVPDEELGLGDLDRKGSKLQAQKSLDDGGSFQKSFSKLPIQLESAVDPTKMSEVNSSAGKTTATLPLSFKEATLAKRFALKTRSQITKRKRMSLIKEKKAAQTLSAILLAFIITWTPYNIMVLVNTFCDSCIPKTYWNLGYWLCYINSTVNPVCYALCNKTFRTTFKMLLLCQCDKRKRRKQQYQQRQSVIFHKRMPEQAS

[2] = biological target: T3, airway M3 receptor in isolated rat trachea (Rattus norvegicus, UniProt P08483); assay: biochemical
T3 construct: A male SD strain rat (weighing 300-500 g) was killed by exsanguination, and the trachea was isolated; from tissue; host or cells: isolated trachea of male SD rat
T3 sequence (P08483 whole entry): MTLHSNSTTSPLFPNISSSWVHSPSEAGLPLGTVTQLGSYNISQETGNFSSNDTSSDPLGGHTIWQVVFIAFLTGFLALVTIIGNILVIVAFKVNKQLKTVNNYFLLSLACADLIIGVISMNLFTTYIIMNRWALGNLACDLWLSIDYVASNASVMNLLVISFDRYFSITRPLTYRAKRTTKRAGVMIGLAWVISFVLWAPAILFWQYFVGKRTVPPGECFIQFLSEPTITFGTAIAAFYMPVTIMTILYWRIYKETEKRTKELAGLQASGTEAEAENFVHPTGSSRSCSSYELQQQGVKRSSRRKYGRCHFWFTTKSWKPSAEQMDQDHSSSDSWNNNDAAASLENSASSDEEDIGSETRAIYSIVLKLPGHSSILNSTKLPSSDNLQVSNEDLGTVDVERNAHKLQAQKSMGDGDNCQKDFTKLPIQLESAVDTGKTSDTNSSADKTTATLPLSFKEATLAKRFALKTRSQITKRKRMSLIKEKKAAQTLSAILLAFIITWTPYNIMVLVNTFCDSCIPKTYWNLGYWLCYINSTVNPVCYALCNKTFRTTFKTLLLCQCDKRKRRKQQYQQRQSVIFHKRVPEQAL

[3] = biological target: T4, M2 receptor in isolated rat right atrium (Rattus norvegicus, UniProt P10980); assay: biochemical
T4 construct: A male SD strain rat (weighing 300-500 g) was killed by exsanguination, and the right atrium was isolated; from tissue; host or cells: isolated right atrium of male SD rat
T4 sequence (P10980 1-466): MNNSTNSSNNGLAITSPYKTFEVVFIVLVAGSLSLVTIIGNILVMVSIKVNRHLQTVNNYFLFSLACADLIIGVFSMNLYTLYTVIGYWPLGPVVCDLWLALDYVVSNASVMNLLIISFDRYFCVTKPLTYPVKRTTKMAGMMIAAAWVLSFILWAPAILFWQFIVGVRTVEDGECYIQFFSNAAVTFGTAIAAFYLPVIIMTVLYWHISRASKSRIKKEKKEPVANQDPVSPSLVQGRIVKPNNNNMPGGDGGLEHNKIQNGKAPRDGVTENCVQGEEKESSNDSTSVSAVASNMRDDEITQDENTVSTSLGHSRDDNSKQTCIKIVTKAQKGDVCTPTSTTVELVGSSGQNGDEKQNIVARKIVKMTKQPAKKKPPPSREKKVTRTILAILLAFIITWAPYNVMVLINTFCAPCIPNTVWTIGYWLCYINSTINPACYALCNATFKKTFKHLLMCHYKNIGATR

[4] = biological target: T5, m2 muscarinic acetylcholine receptor (Homo sapiens, UniProt P08172); assay: biochemical; format: binding
T5 construct: purchased Receptor Biology, Inc; host or cells: CHO cells
T5 sequence (P08172 1-466): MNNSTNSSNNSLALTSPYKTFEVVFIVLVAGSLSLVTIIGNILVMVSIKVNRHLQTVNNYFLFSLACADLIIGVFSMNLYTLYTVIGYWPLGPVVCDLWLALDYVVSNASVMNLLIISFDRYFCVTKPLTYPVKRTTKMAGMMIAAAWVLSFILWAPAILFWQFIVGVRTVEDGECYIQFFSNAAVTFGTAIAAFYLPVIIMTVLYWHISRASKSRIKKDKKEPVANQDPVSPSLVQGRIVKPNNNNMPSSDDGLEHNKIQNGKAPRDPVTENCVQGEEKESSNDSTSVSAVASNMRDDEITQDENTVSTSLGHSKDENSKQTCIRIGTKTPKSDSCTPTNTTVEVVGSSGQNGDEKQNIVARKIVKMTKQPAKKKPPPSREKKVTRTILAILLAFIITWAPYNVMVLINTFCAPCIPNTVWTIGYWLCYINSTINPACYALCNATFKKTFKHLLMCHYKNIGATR

T1 sequence (P20309 whole entry): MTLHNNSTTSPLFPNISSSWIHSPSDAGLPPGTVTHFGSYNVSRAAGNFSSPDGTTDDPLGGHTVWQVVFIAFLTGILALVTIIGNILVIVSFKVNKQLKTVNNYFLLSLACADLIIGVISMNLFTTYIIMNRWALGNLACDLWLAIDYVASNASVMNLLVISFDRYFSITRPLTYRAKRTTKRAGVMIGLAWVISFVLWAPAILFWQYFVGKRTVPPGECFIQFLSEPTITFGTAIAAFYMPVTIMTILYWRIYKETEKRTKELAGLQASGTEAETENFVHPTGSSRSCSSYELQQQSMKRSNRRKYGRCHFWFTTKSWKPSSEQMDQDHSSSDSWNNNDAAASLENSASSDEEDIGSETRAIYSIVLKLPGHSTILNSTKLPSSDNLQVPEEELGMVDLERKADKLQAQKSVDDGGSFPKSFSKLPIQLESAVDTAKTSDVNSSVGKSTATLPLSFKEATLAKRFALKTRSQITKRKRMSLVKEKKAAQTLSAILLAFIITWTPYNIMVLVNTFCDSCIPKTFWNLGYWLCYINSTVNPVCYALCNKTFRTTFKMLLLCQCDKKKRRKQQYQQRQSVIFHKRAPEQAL

In the case of `N=CN1CCC(CCOC(=O)[C@](O)(c2ccccc2)[C@@H]2CCC(F)(F)C2)CC1` [Example 54, 2-(1-(Iminomethyl)piperidin-4-yl)ethyl (2R)-2-((1R)-3,3-difluorocyclopentyl)-2-hydroxy-2-phenylethanoate], the Ki [1] is reported as 0.079 nM, the “m2/m3 (ratio of Ki)” value [1] is reported as 60.2 and the “Shift Value 5 minutes after” value (muscarinic M3 receptor) is reported as >30. The “Shift Value 4 hours after” value (muscarinic M3 receptor) was >30, the “Shift Value 24 hours after” value (muscarinic M3 receptor) was 3.9 and the Kb [2] was 0.21 nM. For the same compound, the “M2/M3 (ratio of KB)” value ([2]; rat, right atrium / trachea) was 50, the Kb [3] was 10.6 nM and the Ki [4] was 4.76 nM.
